According to article PMC7707092, “Discovery and characterization of ORM‐11372, a novel inhibitor of the sodium‐calcium exchanger with positive inotropic activity” (British Journal of Pharmacology, 2020):

Columns and labels:
[1] = test system: human iPS cardiomyocyte action potentials; test: Action potentials in spontaneously beating hiPSC cardiomyocytes (Cor.4U); assay type: cell-based; conditions: 0.1 or 0.3 μM
Experimental: APs were recorded in spontaneously beating Cor.4U CMs in the current clamp using the perforated patch technique and voltage‐sensitive dye (di‐4‐ANEPPS), in a 96‐well plate format. The latter ratiometric optical measurements were performed on the CellOPTIQ platform at Clyde Biosciences (Newhouse, UK).
Effect of ORM-11372 (A: 0.1 µM; B: 0.3 µM) on human iPS cardiomyocyte action potentials. A left, Action potentials recorded in current-clamp at baseline (black trace), during exposure to ORM-11372 (red trace) and during wash off (grey trace). The dashed line denotes 0 mV. On the right is plotted, for the individual cardiomyocytes (n = 4), the action potential duration (APD) at 30, 50 and 90 % repolarisation in 0.1 µM ORM-11372 as the percentage of their baseline values. B, Action potentials and APDs recorded with voltage sensitive dye at baseline (black trace) and after 30 min treatment with either vehicle (0.1 % DMSO; blue trace and circles) or 0.3 µM ORM-11372 (red trace and squares). The APDs at 30, 50 and 90 % repolarisation […]
vehicle and ORM-11372 (*p<0.05 unpaired Student’s t-test).
(§1) (1 picture or pasted object on this page, not shown here)

[2] = molecular target: T1, L‐type Ca^2+ channel current (I CaL) (Rattus norvegicus, UniProt P22002); test: L‐type calcium current (I CaL), patch‐clamp in rat ventricular myocytes; assay type: cell-based; conditions: for effect on calcium current (ICaL) at various test potentials: rat cardiomyocytes; for inhibition at 10 µM: rat ventricular CMs
T1 construct: the inward calcium current (ICaL) in isolated rat cardiomyocytes; endogenous in cells; host or cells: freshly isolated left ventricular cardiomyocytes of male Wistar rats
T1 sequence (P22002 whole entry, other chains not shown): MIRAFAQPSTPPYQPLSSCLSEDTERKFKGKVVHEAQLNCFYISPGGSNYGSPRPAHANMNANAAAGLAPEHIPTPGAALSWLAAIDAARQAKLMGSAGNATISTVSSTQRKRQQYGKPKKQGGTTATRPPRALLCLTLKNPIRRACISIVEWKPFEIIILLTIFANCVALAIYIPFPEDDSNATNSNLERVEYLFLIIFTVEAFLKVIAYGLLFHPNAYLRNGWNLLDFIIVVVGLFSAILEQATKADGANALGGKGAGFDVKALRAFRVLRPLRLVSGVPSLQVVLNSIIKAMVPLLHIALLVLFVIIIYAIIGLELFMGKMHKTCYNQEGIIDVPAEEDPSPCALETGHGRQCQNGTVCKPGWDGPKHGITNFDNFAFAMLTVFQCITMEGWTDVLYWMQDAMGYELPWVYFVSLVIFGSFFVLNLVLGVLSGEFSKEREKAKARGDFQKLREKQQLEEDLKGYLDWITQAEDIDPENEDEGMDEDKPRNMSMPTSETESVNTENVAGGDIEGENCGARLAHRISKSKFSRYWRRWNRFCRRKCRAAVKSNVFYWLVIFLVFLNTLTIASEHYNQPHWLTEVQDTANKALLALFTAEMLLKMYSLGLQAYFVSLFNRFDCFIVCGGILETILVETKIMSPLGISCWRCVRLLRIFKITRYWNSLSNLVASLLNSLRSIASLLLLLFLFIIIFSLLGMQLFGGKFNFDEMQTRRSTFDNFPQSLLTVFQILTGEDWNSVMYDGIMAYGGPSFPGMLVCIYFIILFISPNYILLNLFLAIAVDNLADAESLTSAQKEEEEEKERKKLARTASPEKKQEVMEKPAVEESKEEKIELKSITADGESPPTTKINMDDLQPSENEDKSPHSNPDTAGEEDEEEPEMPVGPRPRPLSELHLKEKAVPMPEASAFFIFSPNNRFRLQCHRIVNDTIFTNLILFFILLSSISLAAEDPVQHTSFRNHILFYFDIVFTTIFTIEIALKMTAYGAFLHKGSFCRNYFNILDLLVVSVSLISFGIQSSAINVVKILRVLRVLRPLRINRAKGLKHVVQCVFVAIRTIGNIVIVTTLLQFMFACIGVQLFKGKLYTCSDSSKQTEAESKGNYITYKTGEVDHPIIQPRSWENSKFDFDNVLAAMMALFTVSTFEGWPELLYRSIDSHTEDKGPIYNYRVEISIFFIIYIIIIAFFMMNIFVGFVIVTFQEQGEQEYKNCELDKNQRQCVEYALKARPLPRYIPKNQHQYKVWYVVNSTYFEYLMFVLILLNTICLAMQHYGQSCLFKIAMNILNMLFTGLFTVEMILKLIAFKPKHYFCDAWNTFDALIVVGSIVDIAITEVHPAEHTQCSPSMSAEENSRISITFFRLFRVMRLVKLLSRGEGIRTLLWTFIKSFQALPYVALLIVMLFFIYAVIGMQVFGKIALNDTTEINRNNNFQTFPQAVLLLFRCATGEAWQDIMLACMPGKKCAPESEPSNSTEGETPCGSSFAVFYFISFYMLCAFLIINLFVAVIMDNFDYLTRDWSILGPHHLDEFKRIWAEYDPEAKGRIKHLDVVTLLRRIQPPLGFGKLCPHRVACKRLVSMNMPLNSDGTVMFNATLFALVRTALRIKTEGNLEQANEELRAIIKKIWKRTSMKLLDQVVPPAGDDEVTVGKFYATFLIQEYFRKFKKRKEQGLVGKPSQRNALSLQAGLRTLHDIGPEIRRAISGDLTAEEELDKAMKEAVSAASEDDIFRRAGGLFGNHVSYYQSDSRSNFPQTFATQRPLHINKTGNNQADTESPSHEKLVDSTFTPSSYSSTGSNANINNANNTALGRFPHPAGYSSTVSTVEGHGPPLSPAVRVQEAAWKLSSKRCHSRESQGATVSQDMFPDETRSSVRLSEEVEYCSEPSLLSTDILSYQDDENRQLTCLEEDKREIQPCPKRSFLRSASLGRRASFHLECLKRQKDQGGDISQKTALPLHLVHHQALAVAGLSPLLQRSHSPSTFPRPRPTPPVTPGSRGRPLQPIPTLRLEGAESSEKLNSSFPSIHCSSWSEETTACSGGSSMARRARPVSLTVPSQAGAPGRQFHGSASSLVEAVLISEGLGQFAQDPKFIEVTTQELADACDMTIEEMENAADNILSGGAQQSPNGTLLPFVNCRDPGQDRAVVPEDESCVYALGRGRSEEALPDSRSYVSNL
T1 sequence (P54290 25-1091 partner, other chains not shown): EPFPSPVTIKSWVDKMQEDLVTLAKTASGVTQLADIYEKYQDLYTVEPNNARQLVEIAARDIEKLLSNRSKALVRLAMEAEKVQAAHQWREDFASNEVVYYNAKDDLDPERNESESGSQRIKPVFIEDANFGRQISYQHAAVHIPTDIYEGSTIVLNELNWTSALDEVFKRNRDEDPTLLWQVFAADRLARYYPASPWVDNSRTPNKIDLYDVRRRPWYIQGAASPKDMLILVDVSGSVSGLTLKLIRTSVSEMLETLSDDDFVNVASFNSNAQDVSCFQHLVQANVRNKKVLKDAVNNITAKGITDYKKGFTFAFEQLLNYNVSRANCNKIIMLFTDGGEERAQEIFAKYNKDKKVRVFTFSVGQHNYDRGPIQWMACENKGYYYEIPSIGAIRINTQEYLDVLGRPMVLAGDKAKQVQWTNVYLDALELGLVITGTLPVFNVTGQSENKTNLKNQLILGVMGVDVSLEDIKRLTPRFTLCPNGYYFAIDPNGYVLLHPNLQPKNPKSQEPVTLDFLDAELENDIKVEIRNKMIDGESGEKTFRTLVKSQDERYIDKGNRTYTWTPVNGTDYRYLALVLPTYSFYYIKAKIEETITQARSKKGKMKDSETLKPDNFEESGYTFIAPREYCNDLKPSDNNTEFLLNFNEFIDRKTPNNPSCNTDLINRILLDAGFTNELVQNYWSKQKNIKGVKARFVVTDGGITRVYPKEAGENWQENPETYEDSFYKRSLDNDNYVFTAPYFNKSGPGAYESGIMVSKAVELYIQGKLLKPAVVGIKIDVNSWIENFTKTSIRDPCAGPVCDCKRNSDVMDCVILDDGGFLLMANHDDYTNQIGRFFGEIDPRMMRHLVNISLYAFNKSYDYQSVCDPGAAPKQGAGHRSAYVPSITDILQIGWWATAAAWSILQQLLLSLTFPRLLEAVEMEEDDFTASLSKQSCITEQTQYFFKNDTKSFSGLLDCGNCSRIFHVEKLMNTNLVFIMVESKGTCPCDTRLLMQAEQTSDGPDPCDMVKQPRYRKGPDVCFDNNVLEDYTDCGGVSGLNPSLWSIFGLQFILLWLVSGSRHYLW
From the text: Manual patch‐clamp recordings of membrane currents (I NCX, L‐type Ca^2+ channel current [I CaL], human cardiac sodium 1.5 current [I Na], and I hERG) were undertaken using either an Axopatch 200B or Axopatch ID amplifier (Molecular Devices, USA), using the whole‐cell configuration. Cells were at least initially (except when recording I Na) perfused with an extracellular solution consisting of (in mM) 143 NaCl, 4 KCl, 1.8 CaCl2, 1.2 MgCl2, 5 glucose, and 10 HEPES (pH 7.4 with NaOH; osmolarity adjusted to 301 ± 3 mOsm). A slightly modified version was used for the rat ventricular CMs (in mM: 144 NaCl, 0.4 NaH2PO4, 4.0 KCl, 1.8 CaCl2, 0.53 MgSO4, 5.5 glucose, and 5.0 HEPES). Patch pipettes were pulled with a P‐2000 or P‐97 micropipette puller (Sutter Instruments, USA) from borosilicate glass capillaries and had resistances of between 2 and 4 MΩ when filled with any of the pipette solutions (see below). The data were filtered at 1 or 2 kHz and digitized at 10 kHz with acquisition and analysis performed by use of pClamp software (Versions 8–10; Molecular Devices; RRID:SCR_011323).
I CaL was recorded from hiPSC‐derived CMs (at room temperature, n = 2) and rat ventricular myocytes at 1 μM (n = 3; 5 cells) and at 10 μM (n = 4; 6 cells) in an extracellular solution supplemented with 4‐aminopyridine (3 mM) at 37 °C. The pipette solution used for hiPSC‐derived CMs consisted (in mM) (pH 7.2; osmolarity adjusted to 293 mOsm) 110 KCl, 40 KOH, 20 TEACI, 3 MgATP, 10 EGTA, and 5 HEPES. The composition of the pipette solution used for rat CMs was (in mM) 125 CsCl, 20 TEACI, 5 MgATP, 10 EGTA, and 10 HEPES; the pH was adjusted to 7.2 using CsOH. I CaL was evoked by a 400‐ms depolarization process to 0 mV from a holding potential of −40 mV every 5 s or, in the case of the rat CMs, by 400 ms; depolarizations to potentials ranging from −35 to 55 mV occurred after a prepulse to −40 mV, from the holding potential of −80 mV.
The effect of ORM-11372 on the inward calcium current (ICaL) in isolated rat cardiomyocytes. ICaL current was evoked by 400 ms-long depolarizing voltage pulses to various test potentials, ranging from -35 mV to 55 mV. The holding potential was -80 mV. A short prepulse to -40 mV served to inactivate the Na+ current (the top part of the panel A). Examples of originals currents are shown in the lower part of panel A, before and after 1 µM ORM-11372 exposure in an isolated rat myocyte. Panels B and C illustrate the current-voltage relation (I-V curves) of ICaL in the absence and presence of 1 µM and 10 µM ORM-11372 (panels B and C, […]
are means ± standard errors of the means.
as §1

Nc1cccc(-c2ccc(CNc3ccc(F)cc3)o2)c1 [ORM‐11372]
hiPSC‐CM APD [1]: significant shortening
effect on calcium current (ICaL) at various test potentials ([2]; 1 µM, n=3, 5 cells): did not change
L-type calcium current amplitude, MEAN ([2]; 1 µM, test potential 0 mV, 5 cells, control -1375.4): -1268.0 pA
L-type calcium current amplitude, MEAN ([2]; 1 µM, test potential 5 mV, 5 cells, control -1319.9): -1233.1 pA
L-type calcium current amplitude, MEAN ([2]; 1 µM, test potential 10 mV, 5 cells, control -1195.5): -1106.0 pA
L-type calcium current amplitude, MEAN ([2]; 1 µM, test potential 15 mV, 5 cells, control -1031.3): -942.5 pA
L-type calcium current amplitude, MEAN ([2]; 1 µM, test potential 20 mV, 5 cells, control -839.7): -771.6 pA
L-type calcium current amplitude, MEAN ([2]; 1 µM, test potential 25 mV, 5 cells, control -655.3): -598.7 pA
L-type calcium current amplitude, MEAN ([2]; 1 µM, test potential 30 mV, 5 cells, control -482.4): -440.5 pA
L-type calcium current amplitude, MEAN ([2]; 1 µM, test potential 35 mV, 5 cells, control -321.0): -290.5 pA
L-type calcium current amplitude, MEAN ([2]; 1 µM, test potential 40 mV, 5 cells, control -184.5): -165.5 pA
L-type calcium current amplitude, MEAN ([2]; 1 µM, test potential 45 mV, 5 cells, control -86.9): -75.9 pA
L-type calcium current amplitude, MEAN ([2]; 1 µM, test potential 50 mV, 4 cells, control -2.1): -6.3 pA
L-type calcium current amplitude, MEAN ([2]; 1 µM, test potential 55 mV, 4 cells, control 73.5): 65.1 pA
L-type calcium current amplitude, MEAN ([2]; 1 µM, test potential -5 mV, 5 cells, control -1356.0): -1228.2 pA
L-type calcium current amplitude, MEAN ([2]; 1 µM, test potential -10 mV, 5 cells, control -1170.3): -1150.4 pA
L-type calcium current amplitude, MEAN ([2]; 1 µM, test potential -15 mV, 5 cells, control -958.3): -852.5 pA
L-type calcium current amplitude, MEAN ([2]; 1 µM, test potential -20 mV, 5 cells, control -659.5): -595.2 pA
L-type calcium current amplitude, MEAN ([2]; 1 µM, test potential -25 mV, 5 cells, control -416.8): -428.2 pA
L-type calcium current amplitude, MEAN ([2]; 1 µM, test potential -30 mV, 5 cells, control -247.1): -254.7 pA
L-type calcium current amplitude, MEAN ([2]; 1 µM, test potential -35 mV, 5 cells, control -143.0): -137.4 pA
effect on calcium current (ICaL) at various test potentials ([2]; 10 µM, n=4, 6 cells): significantly decreased
effect on calcium current (ICaL) at various test potentials ([2]; 10 µM, n=4, 6 cells, listed as ORM-11372): moderately decreased
L-type calcium current amplitude, MEAN ([2]; 10 µM, test potential 0 mV, 6 cells, control -1895.4): -1170.0 pA
L-type calcium current amplitude, MEAN ([2]; 10 µM, test potential 5 mV, 6 cells, control -1875.0): -1197.8 pA
L-type calcium current amplitude, MEAN ([2]; 10 µM, test potential 10 mV, 6 cells, control -1771.9): -1118.9 pA
L-type calcium current amplitude, MEAN ([2]; 10 µM, test potential 15 mV, 6 cells, control -1587.7): -1003.2 pA
L-type calcium current amplitude, MEAN ([2]; 10 µM, test potential 20 mV, 6 cells, control -1357.7): -873.9 pA
L-type calcium current amplitude, MEAN ([2]; 10 µM, test potential 25 mV, 6 cells, control -1116.0): -718.1 pA
L-type calcium current amplitude, MEAN ([2]; 10 µM, test potential 30 mV, 6 cells, control -896.3): -561.5 pA
L-type calcium current amplitude, MEAN ([2]; 10 µM, test potential 35 mV, 6 cells, control -698.8): -429.4 pA
L-type calcium current amplitude, MEAN ([2]; 10 µM, test potential 40 mV, 6 cells, control -525.3): -320.9 pA
L-type calcium current amplitude, MEAN ([2]; 10 µM, test potential 45 mV, 6 cells, control -374.5): -237.0 pA
L-type calcium current amplitude, MEAN ([2]; 10 µM, test potential 50 mV, 6 cells, control -291.0): -189.1 pA
L-type calcium current amplitude, MEAN ([2]; 10 µM, test potential 55 mV, 6 cells, control -158.4): -114.5 pA
L-type calcium current amplitude, MEAN ([2]; 10 µM, test potential -5 mV, 6 cells, control -1762.2): -1043.1 pA
L-type calcium current amplitude, MEAN ([2]; 10 µM, test potential -10 mV, 6 cells, control -1447.7): -807.4 pA
L-type calcium current amplitude, MEAN ([2]; 10 µM, test potential -15 mV, 6 cells, control -1127.6): -525.5 pA
L-type calcium current amplitude, MEAN ([2]; 10 µM, test potential -20 mV, 6 cells, control -920.0): -316.1 pA
L-type calcium current amplitude, MEAN ([2]; 10 µM, test potential -25 mV, 6 cells, control -667.6): -184.1 pA
L-type calcium current amplitude, MEAN ([2]; 10 µM, test potential -30 mV, 6 cells, control -368.9): -115.9 pA
L-type calcium current amplitude, MEAN ([2]; 10 µM, test potential -35 mV, 6 cells, control -156.2): -64.1 pA
inhibition at 1 µM ([2]; rat CMs, 1 μM, 0 mV, read-out: inhibition of inward I CaL): 7.8%
inhibition at 10 µM ([2]; test potentials 0 to 40 mV): 36 to 39%
inhibition at 10 µM ([2]; test potentials −35 to −20 mV): 59 to 69%
